Where only a bound is given, the exact number is not on record here.

The test system of this assay is BE(2)-C cell. The experiment in a line: Cell proliferation assay (MTS) in BE(2)-C cells. It counts as cell-based. The following applies: Homo sapiens, inhibition of BE(2)-C cell proliferation, 48 h. The protocol:
MTS testing kit was purchased from Promega. The DMEM, Fetal bovine serum and Penicillin-Streptomycin were purchased from Gibco. Dimethyl sulfoxide (DMSO) was purchased from Sigma.
To investigate whether a compound is able to inhibit the activity of CDK4/6 in cells, mechanism-based assays using BE(2)-C cell (ATCC® number:CRL-2268) were developed. In the assay, inhibition of CDK4/6 was detected by the inhibition of BE(2)-C cell cells proliferation. BE(2)-C cell cells were cultured in culture flasks to 40-80% confluence in DMEM plus 10% fetal bovine serum. Cells were collected and plated onto 96-well plates at cell density of 3000 cells/well. Plates were incubated overnight at 37° C., with 5% CO2 to adhere. Compounds were added to the plates, the final compound concentrations were 10000, 3333, 1111, […], 123.5, 41.2, 13.7, 4.6 and 1.5 nM. Place plates at 37° C., with 5% CO2 for 48 h. After removing the medium, 20 μl MTS/100 μl medium mixture solution were added to each well and incubate the plates for exactly 2 hours. The reaction was terminated by adding 25 μl 10% SDS per well. Measure absorbance at 490 nm and 650 nm (reference wavelength). IC50 was calculated using GraphPad Prism 5.0.
Select compounds prepared as described above were assayed according to the biological procedures described herein. “++++” stands for IC50 value below about 10 nM. “+++” stands for IC50 value between greater than about 10 nM to about 100 nM. “++” stands for IC50 value between greater than about 100 nM to about […]. “+” stands for IC50 value greater than 1 μM.
As a reminder, the IC50 is the concentration at which inhibition is half-maximal. A low value points to greater potency. With `CC1CCc2nc3c(F)cc(-c4nc(Nc5ccc(CN6CCNCC6)cn5)ncc4F)cc3n21` (stereo in doubt) [Example 155, (R)-5-fluoro-4-(5-fluoro-1-methyl-2,3-dihydro-1H-benzo[d]pyrrolo[1,2-a]imidazol-7-yl)-N-(5-(piperazin-1-ylmethyl)pyridin-2-yl)pyrimidin-2-amine], the concentration for half-maximal inhibition (IC50) was more than 100 nM.
Turning to `OC[C@@H]1CCc2nc3c(F)cc(-c4nc(Nc5ccc(CN6CCNCC6)cn5)ncc4F)cc3n21` [Example 1, (S)-(5-fluoro-7-(5-fluoro-2-((5-(piperazin-1-ylmethyl)pyridin-2-yl)amino)pyrimidin-4-yl)-2,3-dihydro-1H-benzo[d]pyrrolo[1,2-a]imidazol-1-yl)methanol], the IC50 is more than 1000 nM.
As for `CN1CCN(Cc2ccc(Nc3ncc(F)c(-c4cc(F)c5nc6n(c5c4)[C@H](CO)CC6)n3)nc2)CC1` [Example 2, (S)-(5-fluoro-7-(5-fluoro-2-((5-((4-methylpiperazin-1-yl)methyl)pyridin-2-yl)amino)pyrimidin-4-yl)-2,3-dihydro-1H-benzo[d]pyrrolo[1,2-a]imidazol-1-yl)methanol], the IC50 is more than 100 nM.
In the case of `CCN1CCN(Cc2ccc(Nc3ncc(F)c(-c4cc(F)c5nc6n(c5c4)[C@H](CO)CC6)n3)nc2)CC1` [Example 3, (S)-(7-(2-((5-((4-ethylpiperazin-1-yl)methyl)pyridin-2-yl)amino)-5-fluoropyrimidin-4-yl)-5-fluoro-2,3-dihydro-1H-benzo[d]pyrrolo[1,2-a]imidazol-1-yl) methanol] it was more than 100 nM; in that of `FC[C@@H]1CCc2nc3c(F)cc(-c4nc(Nc5ccc(CN6CCNCC6)cn5)ncc4F)cc3n21` [Example 4, (S)-5-fluoro-4-(5-fluoro-1-(fluoromethyl)-2,3-dihydro-1H-benzo[d]pyrrolo[1,2-a]imidazol-7-yl)-N-(5-(piperazin-1-ylmethyl)pyridin-2-yl)pyrimidin-2-amine], more than 100 nM; in that of `CN1CCN(Cc2ccc(Nc3ncc(F)c(-c4cc(F)c5nc6n(c5c4)[C@H](CF)CC6)n3)nc2)CC1` [Example 5, (S)-5-fluoro-4-(5-fluoro-1-(fluoromethyl)-2,3-dihydro-1H-benzo[d]pyrrolo[1,2-a]imidazol-7-yl)-N-(5-((4-methylpiperazin-1-yl)methyl)pyridin-2-yl)pyrimidin-2-amine], more than 100 nM.
Then `CCN1CCN(Cc2ccc(Nc3ncc(F)c(-c4cc(F)c5nc6n(c5c4)[C@H](CF)CC6)n3)nc2)CC1` [Example 6, (S)—N-(5-((4-ethylpiperazin-1-yl)methyl)pyridin-2-yl)-5-fluoro-4-(5-fluoro-1-(fluoromethyl)-2,3-dihydro-1H-benzo[d]pyrrolo[1,2-a]imidazol-7-yl)pyrimidin-2-amine], with more than 100 nM; and `COC[C@@H]1CCc2nc3c(F)cc(-c4nc(Nc5ccc(CN6CCNCC6)cn5)ncc4F)cc3n21` [Example 7, (S)-5-fluoro-4-(5-fluoro-1-(methoxymethyl)-2,3-dihydro-1H-benzo[d]pyrrolo[1,2-a]imidazol-7-yl)-N-(5-(piperazin-1-ylmethyl)pyridin-2-yl)pyrimidin-2-amine], with more than 100 nM; and `COC[C@@H]1CCc2nc3c(F)cc(-c4nc(Nc5ccc(CN6CCN(C)CC6)cn5)ncc4F)cc3n21` [Example 8, (S)-5-fluoro-4-(5-fluoro-1-(methoxymethyl)-2,3-dihydro-1H-benzo[d]pyrrolo[1,2-a]imidazol-7-yl)-N-(5-((4-methylpiperazin-1-yl)methyl)pyridin-2-yl)pyrimidin-2-amine], with more than 100 nM.
`CCN1CCN(Cc2ccc(Nc3ncc(F)c(-c4cc(F)c5nc6n(c5c4)[C@H](COC)CC6)n3)nc2)CC1` [Example 9, (S)—N-(5-((4-ethylpiperazin-1-yl)methyl)pyridin-2-yl)-5-fluoro-4-(5-fluoro-1-(methoxymethyl)-2,3-dihydro-1H-benzo[d]pyrrolo[1,2-a]imidazol-7-yl)pyrimidin-2-amine] came in with an IC50 of more than 100 nM.
In the case of `Fc1cnc(Nc2ccc(CN3CCNCC3)cn2)nc1-c1cc(F)c2nc3n(c2c1)[C@H](C(F)F)CC3` [Example 10, (S)-4-(1-(difluoromethyl)-5-fluoro-2,3-dihydro-1H-benzo[d]pyrrolo[1,2-a]imidazol-7-yl)-5-fluoro-N-(5-(piperazin-1-ylmethyl)pyridin-2-yl)pyrimidin-2-amine] it was more than 100 nM.
In turn, `Fc1cnc(Nc2ccc(CN3CCNCC3)cn2)nc1-c1cc(F)c2nc3n(c2c1)C1(CC3)CC1` [Example 13, 5-fluoro-4-(5-fluoro-2,3-dihydrospiro[benzo[d]pyrrolo[1,2-a]imidazole-1,1′-cyclopropan]-7-yl)-N-(5-(piperazin-1-ylmethyl)pyridin-2-yl)pyrimidin-2-amine] showed an IC50 of more than 100 nM.
In the case of `CN1CCN(Cc2ccc(Nc3ncc(F)c(-c4cc(F)c5nc6n(c5c4)C4(CC6)CC4)n3)nc2)CC1` [Example 14, 5-fluoro-4-(5-fluoro-2,3-dihydrospiro[benzo[d]pyrrolo[1,2-a]imidazole-1,1′-cyclopropan]-7-yl)-N-(5-((4-methylpiperazin-1-yl)methyl)pyridin-2-yl)pyrimidin-2-amine] it was more than 100 nM.
Then `CCN1CCN(Cc2ccc(Nc3ncc(F)c(-c4cc(F)c5nc6n(c5c4)C4(CC6)CC4)n3)nc2)CC1` [Example 15, N-(5-((4-ethylpiperazin-1-yl)methyl)pyridin-2-yl)-5-fluoro-4-(5-fluoro-2,3-dihydrospiro[benzo[d]pyrrolo[1,2-a]imidazole-1,1′-cyclopropan]-7-yl)pyrimidin-2-amine], with more than 100 nM.
In the case of `Fc1cnc(Nc2ccc(CN3CCNCC3)cn2)nc1-c1cc(F)c2nc3n(c2c1)[C@H](C(F)(F)F)CC3` [Example 16, (S)-5-fluoro-4-(5-fluoro-1-(trifluoromethyl)-2,3-dihydro-1H-benzo[d]pyrrolo[1,2-a]imidazol-7-yl)-N-(5-(piperazin-1-ylmethyl)pyridin-2-yl)pyrimidin-2-amine] it was 10 to 100 nM.
For `CN1CCN(Cc2ccc(Nc3ncc(F)c(-c4cc(F)c5nc6n(c5c4)[C@H](C(F)(F)F)CC6)n3)nc2)CC1` [Example 17, (S)-5-fluoro-4-(5-fluoro-1-(trifluoromethyl)-2,3-dihydro-1H-benzo[d]pyrrolo[1,2-a]imidazol-7-yl)-N-(5-((4-methylpiperazin-1-yl)methyl)pyridin-2-yl)pyrimidin-2-amine], the IC50 is 10 to 100 nM.
Then `CCN1CCN(Cc2ccc(Nc3ncc(F)c(-c4cc(F)c5nc6n(c5c4)[C@H](C(F)(F)F)CC6)n3)nc2)CC1` [Example 18, (S)—N-(5-((4-ethylpiperazin-1-yl)methyl)pyridin-2-yl)-5-fluoro-4-(5-fluoro-1-(trifluoromethyl)-2,3-dihydro-1H-benzo[d]pyrrolo[1,2-a]imidazol-7-yl)pyrimidin-2-amine], with 10 to 100 nM.
Then `FC[C@@H]1CCc2nc3c(F)cc(-c4nc(Nc5ccc(CN6CCN7CCC[C@@H]7C6)cn5)ncc4F)cc3n21` [Example 19, 5-fluoro-4-((S)-5-fluoro-1-(fluoromethyl)-2,3-dihydro-1H-benzo[d]pyrrolo[1,2-a]imidazol-7-yl)-N-(5-(((R)-hexahydropyrrolo[1,2-a]pyrazin-2(1H)-yl)methyl)pyridin-2-yl)pyrimidin-2-amine], with less than 10 nM.

The record behind these values is patent US10450316B2, “Certain protein kinase inhibitor” (Chongqing Fochon Pharmaceutical Co., Ltd., priority 2015, dated 2019).
